From patent publication US8841456B2, “1,5-naphthyridine derivative or salt thereof” (FUJIFILM Corporation, priority 2011, dated 2014)
Like-named read-outs stand apart in the source and are kept apart here.

Tests used:
[1] = target: T1, glutathione S-transferase (GST)-fusion human ERK2 protein (Homo sapiens, UniProt P28482); experiment: ERK2 enzyme assay (LabChip mobility shift); format: biochemical; settings: 2 nM ERK2, 4.25 μM FL-Peptide 8, 43 μM ATP
T1 construct: purchased Carna Biosciences, Inc; host or cells: E. coli expression system
Experimental: Evaluation of the ERK2 inhibitory activity of the compound of the present invention was carried out according to the method as described below.
For the ERK2 enzyme assay, a glutathione S-transferase (GST)-fusion human ERK2 protein (Carna Biosciences, Inc.) produced using an E. coli expression system was used.
12 μL of the reaction solution (2 nM ERK2, 100 mM Hepes, 10 mM MgCl2, 1.5 mM DTT, 0.003% Brij35, pH 7.5) including the ERK2 protein and a test compound at a predetermined concentration was incubatedat room temperature for 15 minutes. Thereafter, 3 μL of a mixed solution of FL-Peptide 8 (5-FAM-IPTSPITTTYFFFKKK-COOH) (Caliper Lifescience) which was a substrate and ATP(SIGMA-ALDLICH) were added thereto to a final concentration of 4.25 μM and 43 μM, respectively. The reaction solution was further incubated at 25° C. for 120 minutes to carry out an enzyme reaction.
The enzyme reaction was stopped by adding 27 μL of a reaction-stopping solution (100 mM HEPES, 11.2 mM EDTA, 5.6% Brij35, pH 7.5) including a 0.5% Coating reagent 8 (PerkinElmer, Inc.) after the reaction. Thereafter, non-phosphorylated peptides and phosphorylated peptides were separated using LabChip Ez Reader (Caliper LifeScience, Inc.) to quantify the proportion of phosphorylated peptides.
(§1) The inhibitory activity of the compounds was evaluated using an IC50 (50% inhibitory concentration). The IC50 was calculated using XLfit (IDBS).

human PI3Kα protein = target: T2, human PI3Kα protein (Homo sapiens, UniProt P42336); experiment: PI3Kα enzyme assay (ADP-Glo kinase assay); format: biochemical; settings: 3 nM PI3Kα, 50 μM PIP2, 100 μM ATP
T2 construct: purchased Carna Biosciences, Inc; host or cells: Baculovirus expression system
Experimental: Evaluation of the PI3Kα inhibitory activity of the compound of the present invention was carried out according to the method as described below.
For the PI3Kα enzyme assay, biotinylated product of a human PI3Kα protein produced using a Baculovirus expression system (Carna Biosciences, Inc.) was used. Further, for the detection of the enzyme activity, an ADP-Glo kinase assay (PROMEGA Corporation) was used.
10 μL of a reaction solution (3 nM PI3Kα, 40 mM Tris-HCl, 20 mM MgCl2, 0.1% BSA, pH 7.5) including the human PI3Kα protein and a test compound at a predetermined concentration was incubated at room temperature for 15 minutes. Thereafter, 5 μL of a mixed solution of L-α-Phosphatidylinositol 4,5-diphosphate (PIP2) (SIGMA-ALDLICH) which was a substrate and ATP(SIGMA-ALDLICH) was added thereto to a final concentration of 50 μM and 100 μM, respectively, and the reaction solution was further incubated at 25° C. for 60 minutes to carry out an enzyme reaction.
After the reaction, 15 μL of an ADP-Glo reagent (PROMEGA Corporation) was added and the resulting liquid was incubated at room temperature for 60 minutes, whereby the enzyme reaction was stopped. Thereafter, after further adding 30 μL of a Kinase Detection Reagent (PROMEGA Corporation) and standing the resulting solution at room temperature for 40 minutes, ADP produced by the enzyme reaction was quantified by luminescence intensity.
For the measurement of luminescence intensity, EnVision (PerkinElmer, Inc.) was used.
as §1

[2] = IC50 class, read-out: ERK2 Inhibitory Activity
[3] = IC50 class, read-out: PI3Kα Inhibitory Activity

T2 sequence (P42336 whole entry): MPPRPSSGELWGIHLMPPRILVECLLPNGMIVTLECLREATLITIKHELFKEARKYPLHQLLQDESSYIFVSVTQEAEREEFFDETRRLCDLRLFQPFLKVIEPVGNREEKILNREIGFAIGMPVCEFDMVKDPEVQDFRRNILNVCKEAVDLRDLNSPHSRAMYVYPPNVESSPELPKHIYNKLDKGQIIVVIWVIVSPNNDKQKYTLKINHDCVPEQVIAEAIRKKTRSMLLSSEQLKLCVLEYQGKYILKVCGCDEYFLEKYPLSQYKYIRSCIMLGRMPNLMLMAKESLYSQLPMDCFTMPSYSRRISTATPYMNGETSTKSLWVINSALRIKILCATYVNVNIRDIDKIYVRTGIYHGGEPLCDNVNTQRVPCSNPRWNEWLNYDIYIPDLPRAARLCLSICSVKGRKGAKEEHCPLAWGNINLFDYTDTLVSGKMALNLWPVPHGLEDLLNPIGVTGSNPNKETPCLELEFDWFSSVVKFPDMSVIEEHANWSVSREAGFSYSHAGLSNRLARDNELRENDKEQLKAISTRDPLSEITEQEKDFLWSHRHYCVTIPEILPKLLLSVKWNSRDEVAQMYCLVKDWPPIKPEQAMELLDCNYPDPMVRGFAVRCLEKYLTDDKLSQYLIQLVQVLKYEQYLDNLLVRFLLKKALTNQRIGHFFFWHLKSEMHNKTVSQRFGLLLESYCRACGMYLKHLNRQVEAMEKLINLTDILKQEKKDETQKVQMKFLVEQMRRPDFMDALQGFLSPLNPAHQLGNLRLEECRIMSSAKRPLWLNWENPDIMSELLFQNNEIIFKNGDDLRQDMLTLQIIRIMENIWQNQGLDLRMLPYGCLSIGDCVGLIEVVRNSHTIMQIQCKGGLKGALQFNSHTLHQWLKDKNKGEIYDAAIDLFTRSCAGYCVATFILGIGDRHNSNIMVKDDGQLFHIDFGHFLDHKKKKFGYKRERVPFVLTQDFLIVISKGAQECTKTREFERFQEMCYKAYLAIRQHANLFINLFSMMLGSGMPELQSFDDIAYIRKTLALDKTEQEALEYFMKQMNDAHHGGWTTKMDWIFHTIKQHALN
T2 sequence (P27986 whole entry partner): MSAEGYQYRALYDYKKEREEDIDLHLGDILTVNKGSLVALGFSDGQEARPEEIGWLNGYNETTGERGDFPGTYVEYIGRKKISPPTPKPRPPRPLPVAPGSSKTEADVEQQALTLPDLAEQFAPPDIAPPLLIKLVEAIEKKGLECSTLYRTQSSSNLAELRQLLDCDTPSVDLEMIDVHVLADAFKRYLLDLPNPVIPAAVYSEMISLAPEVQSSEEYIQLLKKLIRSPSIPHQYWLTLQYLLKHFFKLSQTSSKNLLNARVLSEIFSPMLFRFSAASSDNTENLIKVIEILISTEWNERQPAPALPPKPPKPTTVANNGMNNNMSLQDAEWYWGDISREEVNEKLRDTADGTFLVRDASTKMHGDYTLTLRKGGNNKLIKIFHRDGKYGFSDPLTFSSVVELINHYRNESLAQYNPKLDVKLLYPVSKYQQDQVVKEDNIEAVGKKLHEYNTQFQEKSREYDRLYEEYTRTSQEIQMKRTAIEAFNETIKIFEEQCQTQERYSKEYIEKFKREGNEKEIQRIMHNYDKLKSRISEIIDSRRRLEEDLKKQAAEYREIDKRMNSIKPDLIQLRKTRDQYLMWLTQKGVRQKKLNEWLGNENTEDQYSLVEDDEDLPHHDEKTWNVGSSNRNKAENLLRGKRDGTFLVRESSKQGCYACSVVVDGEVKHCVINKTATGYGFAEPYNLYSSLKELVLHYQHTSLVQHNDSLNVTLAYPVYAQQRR
T1 sequence (P28482 whole entry, the tested form may be a part): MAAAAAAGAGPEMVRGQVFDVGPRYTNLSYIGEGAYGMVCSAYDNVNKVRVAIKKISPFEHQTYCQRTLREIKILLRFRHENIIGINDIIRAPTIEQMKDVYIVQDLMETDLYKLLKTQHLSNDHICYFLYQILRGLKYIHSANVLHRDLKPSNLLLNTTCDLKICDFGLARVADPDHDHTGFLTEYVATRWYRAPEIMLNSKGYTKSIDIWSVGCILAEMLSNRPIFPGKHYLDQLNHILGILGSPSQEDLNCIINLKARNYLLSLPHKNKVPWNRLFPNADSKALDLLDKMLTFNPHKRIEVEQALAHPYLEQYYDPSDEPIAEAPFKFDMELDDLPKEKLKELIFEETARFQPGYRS

Compound	IC50 [1, 2] [nM]	IC50 (human PI3Kα protein; [3]) [nM]	IC50 ([1]; read-out: ERK2, IC50) [nM]	IC50 (human PI3Kα protein; read-out: PI3Kα, IC50) [nM]
C=CCNC(=O)Nc1ccc2ncc(-c3cn[nH]c3)cc2n1 [Compound 0056]	< 100	100 to 1000		
CCCCCCNC(=O)Nc1ccc2ncc(-c3cn[nH]c3)cc2n1 [Compound 0057]	< 100	< 100		
O=C(Nc1ccc2ncc(-c3cn[nH]c3)cc2n1)NC1CCCCCC1 [Compound 0058]	< 100	< 100		
CC(C)(C)NC(=O)Nc1ccc2ncc(-c3cn[nH]c3)cc2n1 [Compound 0059]	< 100	< 100		
O=C(NCc1ccccc1)Nc1ccc2ncc(-c3cn[nH]c3)cc2n1 [Compound 0060]	< 100	100 to 1000		
O=C(Nc1ccc2ncc(-c3cn[nH]c3)cc2n1)NC1CCCCC1 [Compound 0061]	< 100	< 100		
CCOC(=O)CNC(=O)Nc1ccc2ncc(-c3cn[nH]c3)cc2n1 [Compound 0062]	100 to 1000	1000 to 10000		
O=C(NCC1CCCCC1)Nc1ccc2ncc(-c3cn[nH]c3)cc2n1 [Compound 0063]	< 100	100 to 1000		
O=C(NCCCCc1ccccc1)Nc1ccc2ncc(-c3cn[nH]c3)cc2n1 [Compound 0064]	< 100	< 100	< 3	50
O=C(Nc1ccc2ncc(-c3cn[nH]c3)cc2n1)NC1CCCc2ccccc21 (stereo not drawn) [Compound 0065]	< 100	100 to 1000		
CC(C)(C)OC(=O)n1cc(-c2cnc3ccc(NC(=O)NC4CCCc5ccccc54)nc3c2)cn1 (stereo not drawn) [Compound 0066]	< 100	1000 to 10000		
O=C(Nc1ccc2ncc(-c3cn[nH]c3)cc2n1)NC1CC1 [Compound 0067]	< 100	100 to 1000		
O=C(Nc1ccc2ncc(-c3cn[nH]c3)cc2n1)NC1C[C@H]2CC[C@@H]1C2 (stereo partly drawn) [Compound 0068]	< 100	< 100	4	30
O=C(Nc1ccc2ncc(-c3cn[nH]c3)cc2n1)NC1CCN(Cc2ccccc2)C1 (stereo not drawn) [Compound 0069]	< 100	100 to 1000	< 3	133
CC(C)(C)OC(=O)N1CC[C@@H](NC(=O)Nc2ccc3ncc(-c4cn[nH]c4)cc3n2)C1 [Compound 0070]	< 100	100 to 1000		
CC(C)(C)OC(=O)N1CC[C@H](NC(=O)Nc2ccc3ncc(-c4cn[nH]c4)cc3n2)C1 [Compound 0071]	100 to 1000	< 100		
CC(C)C(C)NC(=O)Nc1ccc2ncc(-c3cn[nH]c3)cc2n1 (stereo not drawn) [Compound 0072]	< 100	< 100		
O=C(Nc1ccc2ncc(-c3cn[nH]c3)cc2n1)N[C@@H]1CCNC1 [Compound 0073]	< 100	1000 to 10000		
O=C(Nc1ccc2ncc(-c3cn[nH]c3)cc2n1)N[C@H]1CCNC1 [Compound 0074]	< 100	1000 to 10000		
O=C(Nc1ccc2ncc(-c3cn[nH]c3)cc2n1)NC1CCOC1 (stereo not drawn) [Compound 0075]	< 100	100 to 1000		
O=C(Nc1ccc2ncc(-c3cn[nH]c3)cc2n1)NC1CCOCC1 [Compound 0076]	< 100	100 to 1000		
O=C(Nc1ccc2ncc(-c3cn[nH]c3)cc2n1)N[C@H]1CCc2ccccc21 [Compound 0077]	< 100	100 to 1000		
CN1CCC(NC(=O)Nc2ccc3ncc(-c4cn[nH]c4)cc3n2)CC1 [Compound 0078]	100 to 1000	1000 to 10000		
C[C@H](NC(=O)Nc1ccc2ncc(-c3cn[nH]c3)cc2n1)C1CCCCC1 [Compound 0079]	< 100	< 100		
C[C@@H](NC(=O)Nc1ccc2ncc(-c3cn[nH]c3)cc2n1)C1CCCCC1 [Compound 0080]	< 100	< 100	< 3	60
O=C(NCC1CCCC1)Nc1ccc2ncc(-c3cn[nH]c3)cc2n1 [Compound 0081]	< 100	< 100		
